Counter-ions that a name gives are not always drawn. Like-named read-outs stand apart in the source and are kept apart here.

For orientation: clearance means the rate of elimination divided by the concentration. As usually defined, the bioavailability is dose-corrected exposure relative to a reference, in per cent. Usually Tmax stands for the time at which the peak concentration occurs.

Data set [1] has as its target T1, KRAS^G12D (Homo sapiens (Human), UniProt P01116, G12D). Kind of data set: Activity of inhibiting KRAS^G12D: binding of KRAS to GTP (TR-FRET, SOS/GTP exchange). The data set is classed as biochemical. The note with it: Bodipy GDP/SOS/GTP. In general terms: In TR-FRET formats the signal depends on donor and acceptor labels being close together.
Data set [2] concerns KRAS^G12D mutated AsPC-1 cells. Kind of data set: Anti-cell proliferation in tumor cell line AsPC-1 (CellTiter-Glo 3D). The format is cell-based. Conditions: Homo sapiens, ASPC1; AsPC-1, 120 hours, 3D culture; read-out: Anti-proliferation Activity against KRAS^G12D Mutated AsPC-1 Cells IC50. The source says: Assay example 2. Anti-cell proliferation effects of compounds in tumor cell line AsPC-1 1. Research purpose
In this assay, the inhibitory effects of compounds on cell proliferation were studied by detecting the effects of compounds on the in vitro cell activity in the tumor cell line AsPC-1.
Ultra Low Cluster-96 well plate (Corning-7007)
Greiner CELLSTAR 96-well plate (#655090)
Promega CellTiter-Glo 3D Luminescence Cell Viability Detection Kit (Promega-G9683)
2104-10 En Vision Plate Reader, PerkinElmer
RPMI 1640, DMEM, PBS (phosphate buffered solution), FBS (fetal bovine serum), Antibiotic-antimycotic, L-glutamine, DMSO (dimethyl sulfoxide)
3. Assay methods and steps Cell culture
The tumor cell line was cultured in a 37° C., 5% CO2 incubator according to the culture conditions indicated in the culture method. […]
Cells were stained with trypan blue and viable cells were counted. […]
CellTiter-Glo luminescence assay for cell viability detection (day 5)
The following steps were performed according to the instructions of the Promega CellTiter-Glo 3D Luminescence Cell Viability Dectection Kit (Promega #G9683). […]
The solution in the ULA culture plate was then transferred to a black bottom culture plate (#655090) and left at room temperature for 25 minutes to stabilize the luminescence signal.
Luminescence signals were detected with a 2104 EnVision plate reader. […]
A general note: ATP-based viability assays read luminescence as a measure of living cells.

Data set [3] addresses T1, KRAS^G12D. Kind of data set: SOS1-mediated binding of KRAS^G12D to effector protein c-Raf (TR-FRET). The format is biochemical. Conditions: KRAS G12D/c-Raf/SOS1/GTP, read-out: IC50 Values of Compounds for KRAS^G12D Activity. The method, then:
Assay example 1: Assay of SOS1-mediated binding ability of KRAS^G12D to effector protein c-Raf
2. Assay steps 2.1 Preparation of 1×enzymatic reaction buffer:
2.2 Preparation of KRAS G12D enzyme (2×):
2.3 Preparation of substrate and antibody mixture (2×):
1) The compounds were serially diluted 5-fold with DMSO in a dilution plate to a final starting concentration of 10 μM.
2) The compounds were transferred with Echo to a 384 reaction plate with […] per well.
3) 5 μL of KRAS G12D enzyme was added to each well of the reaction plate.
4) The plates were sealed with a sealing film and centrifuged at 1000 g for 30 seconds, and then incubated at room temperature for 15 minutes.
5) 2× cRaf/SOS1/GTP/MAb Anti 6HIS-d2/MAb Anti GST-Eu mixture was prepared with 1× enzyme reaction buffer, and 5 μL of the mixture was added to the reaction plate.
6) The mixture was centrifuged at 1000g for 30 seconds and reacted at room temperature for 2 hours.
7) The fluorescence signals at 615 nm (Cryptate) and 665 nm (XL665) were read with a BMG microplate reader.
8) Data analysis was performed using Graphpad 7.0 software to give IC50.

For data set [4], the system named is phospho-ERK in GP2D cells. Kind of data set: Inhibition of phospho-ERK in GP2D cells (Odyssey in-cell imaging). The data set is classed as cell-based. The note with it: Homo sapiens, 1 hour compound, EGF stimulation, read-out: Inhibitory effects on intracellular phospho-ERK IC50. The method, then: Assay example 3. Inhibitory effect of compounds on phospho-ERK in GP2D cells
In this assay, the inhibitory effect of the assayed compounds on the phosphorylation of ERK protein downstream of the KRAS […] signaling pathway in human colon cancer GP2D cells was analyzed.
2. Reagents, consumables and instruments
3.Assay process 1. Cell culture
1) GP2D cells were cultured in a cell culture 75 flask at 37° C., 5% CO2, and the medium was DMEM medium (added with 10% FBS and 1% P/S).
2) After cultivation for 2 days, the medium was removed and the sterile PBS buffer was used to wash once.
3) 3 mL of trypsin was added and the cells were digested in a 37° C. incubator for 2 to 3 minutes until cells fell off.
4) 9 mL of fresh culture medium was added to neutralize the digestion; the cells were aspirated into a centrifuge tube and centrifuged at 1000 rpm at room temperature for 5 minutes.
5) The supernatant was removed, and 3 mL of fresh culture medium was added to resuspend the cells; the cells were counted by a cell counter.
1) 7000 cells per well were plated in a 384-cell culture plate with 40 μL of culture medium, and cultured overnight in a 37° C. and 5% CO2 incubator.
2) The Echo655 instrument was used to add 40 nL of serially diluted compounds (the initial concentration of the compound was 1000 nM, and the compound was serially diluted 3-fold. […]

Data set [5] in a line: Pharmacokinetic study in vivo in mice. Conditions: mouse, plasma, male C57BL/6J mice; for AUC(0-t): read-out: area under plasma concentration-time curve AUC0-last. The method, then: Male C57BL/6J mice aged 7 to 10 weeks were selected, and administered candidate compound solutions intravenously or orally. Whole blood was collected for a certain period of time. Plasma was prepared. Drug concentration was analyzed by LC-MS/MS method. Pharmacokinetic parameters were calculated using Certara WinNonlin software (Certara Company, USA).

T1 sequence (P01116-2 other isoform, or with tags, fused parts or gaps G12D): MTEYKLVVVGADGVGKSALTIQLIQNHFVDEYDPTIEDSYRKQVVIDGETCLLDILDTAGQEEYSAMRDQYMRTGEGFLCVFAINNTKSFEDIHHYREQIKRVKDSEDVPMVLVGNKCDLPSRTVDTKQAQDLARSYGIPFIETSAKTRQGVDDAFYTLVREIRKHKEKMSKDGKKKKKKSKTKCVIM

With `Oc1cc(-c2c(Cl)cc3c(N4C5CCC4CNC5)nc(OC[C@@]45CCCN4C[C@H](F)C5)nc3c2F)c2ccccc2c1` [Compound 029 hydrochloride], the IC50 at KRAS^G12D [1] is 0.0386 µM.

Regarding `C#Cc1c(F)ccc2cc(N)cc(-c3c(F)cc4c(N5CC6C=CC(C5)N6)nc(OC[C@]56CCCN5CC(=C)C6)nc4c3F)c12` [Compound 016B], in data set [2], the IC50 was 0.0142 µM.

In the case of `C#Cc1c(F)ccc2cc(O)cc(-c3ccc4c(N5CC6C=CC(C5)N6)nc(OC[C@@]56CCCN5C[C@H](F)C6)nc4c3F)c12` [Compound 005], the IC50 at KRAS^G12D [3] was found to be 0.0123 µM.

`C#Cc1c(F)ccc2cc(N)cc(-c3ccc4c(N5CC6C=CC(C5)N6)nc(OC[C@@]56CCCN5C[C@H](F)C6)nc4c3F)c12` [Compound 003]: the IC50 on KRAS^G12D [3] is 0.0204 µM.

For the compound `C#Cc1c(F)ccc2cc(N)cc(-c3c(Cl)cc4c(N5CC6C=CC(C5)N6)nc(OC[C@@]56CCCN5C[C@H](F)C6)nc4c3F)c12` [Compound 001B], at KRAS^G12D [3], the IC50 came out at 0.0189 µM.

Take `C#Cc1c(F)ccc2cc(N)cc(-c3c(F)cc4c(N5CC6C=CC(C5)N6)nc(OC[C@@]56CCCN5C[C@H](F)C6)nc4c3F)c12` [Compound 002A]: the figures for the IC50 (in data set [4]; in data set [2]; on KRAS^G12D [3]) were 0.00015 µM, 0.0177 µM and 0.0237 µM, respectively. Moreover, the Vd in data set [5] (intravenous administration, dose 1.74-1.94 mg/kg, read-out: apparent volume of distribution Vdss) came to 56.3 L/kg. Besides, the AUC(0-t) in data set [5] (intravenous administration, dose 1.74-1.94 mg/kg) turned out to be 0.267 µM·h; in data set [5] (oral administration, dose 28.2-51.0 mg/kg) it was 0.637 µM·h. In data set [5] (intravenous administration, dose 1.74-1.94 mg/kg, read-out: clearance rate CL), the clearance was found to be 189 mL/min/kg. Moreover, the half-life in data set [5] (intravenous administration, dose 1.74-1.94 mg/kg, read-out: half-life T1/2 (converted)) is 7.12 h. Besides, in data set [5] (oral administration, dose 28.2-51.0 mg/kg, read-out: bioavailability F), the bioavailability turned out to be 16.1%. Besides, in data set [5] (oral administration, dose 28.2-51.0 mg/kg, read-out: peak concentration Cmax), the Cmax came out at 345 nM. The Tmax in data set [5] (oral administration, dose 28.2-51.0 mg/kg, read-out: peak time Tmax) came to 1.13 h.

For the compound `C#Cc1c(F)ccc2cc(N)cc(-c3cc(OC)c4c(N5CC6C=CC(C5)N6)nc(OC[C@@]56CCCN5C[C@H](F)C6)nc4c3F)c12` [Compound 006], the IC50 on KRAS^G12D [3] stood at 0.0374 µM.
